Experimental findings from patent US5726188A, “Optically active imidazolidinone derivatives and processes for preparing them” (Kyorin Pharmaceutical Co., Ltd., priority 1993, dated 1998) are described below.

For series [1], the target named is T1, M2 type muscarinic cholinergic receptor (Rattus norvegicus, UniProt P10980).
T1 construct: crude synaptic membrane specimen was prepared from the brain stem (medulla oblongata-pons) of rat; from tissue; host or cells: rat brain stem (medulla oblongata-pons), crude synaptic membranes
T1 sequence (P10980 1-466): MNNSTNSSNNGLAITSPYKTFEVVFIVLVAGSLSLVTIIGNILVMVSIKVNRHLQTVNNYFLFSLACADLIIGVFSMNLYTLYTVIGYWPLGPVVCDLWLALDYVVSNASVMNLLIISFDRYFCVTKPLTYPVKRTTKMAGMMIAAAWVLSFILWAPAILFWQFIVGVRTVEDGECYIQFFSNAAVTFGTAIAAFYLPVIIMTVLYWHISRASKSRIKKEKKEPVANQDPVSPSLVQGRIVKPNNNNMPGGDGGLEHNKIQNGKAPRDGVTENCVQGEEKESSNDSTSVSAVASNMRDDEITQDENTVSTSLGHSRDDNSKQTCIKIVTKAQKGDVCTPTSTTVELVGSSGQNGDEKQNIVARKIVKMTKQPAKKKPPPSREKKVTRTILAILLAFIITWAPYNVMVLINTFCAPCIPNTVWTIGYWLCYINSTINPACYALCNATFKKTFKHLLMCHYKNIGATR
The series can be described thus: Radioligand binding to M2 type muscarinic cholinergic receptor ([^3 H]-quinuclidyl benzoate). Particulars: rat brain stem crude synaptic membrane, [^3 H]-QNB 0.1 nM.

Series [2] addresses T2, M1 type muscarinic cholinergic receptor (Rattus norvegicus, UniProt P08482).
T2 construct: crude synaptic membrane specimen prepared from all brains (except cerebellum and brain stem) of rat; from tissue; host or cells: rat brain without cerebellum and brain stem, crude synaptic membranes
T2 sequence (P08482 1-460): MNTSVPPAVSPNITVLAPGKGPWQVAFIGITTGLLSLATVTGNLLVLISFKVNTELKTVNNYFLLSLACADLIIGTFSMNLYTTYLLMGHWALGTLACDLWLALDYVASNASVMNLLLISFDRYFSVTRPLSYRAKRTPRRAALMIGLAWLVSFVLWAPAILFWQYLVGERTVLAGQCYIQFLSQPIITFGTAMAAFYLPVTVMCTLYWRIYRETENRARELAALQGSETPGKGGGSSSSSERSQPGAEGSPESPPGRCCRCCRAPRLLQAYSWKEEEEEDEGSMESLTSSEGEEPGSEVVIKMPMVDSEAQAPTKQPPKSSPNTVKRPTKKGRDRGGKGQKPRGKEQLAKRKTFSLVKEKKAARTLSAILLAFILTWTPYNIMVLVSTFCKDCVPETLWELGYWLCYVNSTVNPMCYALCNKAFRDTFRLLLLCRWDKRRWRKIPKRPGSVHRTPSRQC
The series can be described thus: Radioligand binding to M1 type muscarinic cholinergic receptor ([^3 H]-pirenzepine). Particulars: for IC50: rat brain (except cerebellum and brain stem) crude synaptic membrane, [^3 H]-PZ 1 nM, 60 minutes, 25 °C. Here is the method:
1) Radioligand binding experiment to M1 type muscarinic cholinergic receptor
Method: To a crude synaptic membrane specimen prepared from all brains (except cerebellum and brain stem) of rat, [^3 H]-pirenzepine ([^3 H]-PZ, final oncentration: 1 nM) and testing compound were added and the mixture was incubated for 60 minutes at 25 ° C. After stopped the reaction by high-speed suction filtration, the radioactivity on filter was measured with liquid scintillation counter. The specific binding level of [^3 H]-pirenzepine was determined by subtracting the nonspecific binding level in the presence of atropine (1 μM) from total binding level. Putting the [^3 H]-pirenzepine binding in the absence of testing compound on 100, the concentration of compound to decrease by 50 % (IC50 value) was made an index of the binding activity of compound to M1 muscarinic receptor (refer to: J. A. D. M. Toner et al, Life Science, 1987, 40, 1981-1987).

A further series concerns Std:ddY strain male mice. The series can be described thus: In vivo toxicity test, oral administration. Particulars: for common symptoms and death / Convulsion (animals affected) / Death (animals) / dose at which convulsion was observed / dose at which death was observed: 3 days. Here is the method: For the experiment animals, 4 animals per group of Std:ddY strain male mice with body weightOf 26 to 30 g (age in week: 5) (Nippon SLC) were used. The testing compound was suspended into 5 % solution of arabic gum and administered orally. The common symptoms and death caused with compound were recorded for 3 days after administration.

Series [3] relates to pirenzepine-induced amnesia. Description: Pirenzepine-induced amnesia, step-through type passive avoidance. The format is in vivo, Std:ddY strain male mice. Particulars: oral; for Reaction latency Mean ± S.E.: 30 or 60 minutes before acquisition trial, pirenzepine-treated mice; for Improvement rate: pirenzepine-induced amnesia. From the text: Testing on the pirenzepine-induced amnesia
For the experiment animals, Std:ddY strain male mice with body weight of 24 to 34 g (age in week: 5-6) (Nippon SLC) were used. For the device, a step-through type passive avoidance apparatus (made by Ohara Medical Co., Ltd.) consisting of two […] and dark rooms was used. In the acquisition trial, mouse was placed in the light room and, 10 seconds later, the partitive guillotine door was opened. As soon as the mouse moved into the dark room, the guillotine door was closed and electric shock of 41 to 45 V was given for 1 second through the metal grid bars of the floor. The retention trial was conducted 24 hours later since then. […] The induction of amnesia was performed by fixing a mouse at prone position without anesthetization at 20 minutes before learning acquisition trial and injecting pirenzepine (10 μg/2 μl/mouse bilaterally into cerebral ventricles using a microsyringe. Moreover, a group not to administered with pirenzepine before acquisition trial (non-amnesia comparison group) was also provided. The mice were made to be 12 to 21 animals per group and the testing compound was administered orally at 30 or 60 minutes before acquisition trial. The improvement rate was calculate according to following equation and the results are shown in Table 5 (refer to: M. P. Callfield et at, J. Pharm. Pharmacol. 1983, 35, 131-132). [formula]
The extension of the reaction latency with compound therefore means the improved amnesia.

In series [4] the test system is M1 and M2 muscarinic receptors. The series can be described thus: Selectivity to M1 receptor (ratio of IC50 values from the M1 and M2 binding experiments). The arrangement: species or system rat. Here is the method: 3) Selectivity to M1 receptor
This was determined from the ratio of IC50 values of compound obtained from the binding experiments of M1 and M2 muscarinic receptors. [formula]

As a reminder, the IC50 is the concentration that inhibits the measured activity by half. A low value points to greater potency.

As to `O=C1N(c2ccc(F)cc2)CCN1C1CCCN(Cc2ccccc2)C1` (racemic) [Referential example 8, (±)-1-(4-fluorophenyl)-3-[3-(1-phenylmethyl)piperidyl]-2-imidazolidinone], in series [1], the IC50 stood at 1090 nM. Moreover, the IC50 in series [2] was 80 nM. In addition, in the series on Std:ddY strain male mice, the “common symptoms (in words)” value was “convulsive actions were seen”, the “dose at which convulsion was observed” value is reported as 600 mg/kg and the “dose at which death was observed” value came out at 1200 mg/kg. Also, the “common symptoms and death” value with Std:ddY strain male mice (300 mg/kg) is reported as “None”. For the same molecule, the “Convulsion (animals affected)” value in the series with Std:ddY strain male mice (600 mg/kg) is recorded as 3/4. Besides, the “Death (animals)” value in the series with Std:ddY strain male mice (1200 mg/kg) is reported as 4/4. Also, in series [3] (3 mg/kg), the “Reaction latency Mean ± S.E.” value was found to be 55.1 ± 20.0 s and the Improvement rate is listed as -20.7%. In addition, in series [3] (10 mg/kg), the “Reaction latency Mean ± S.E.” value came out at 153.7 ± 27.6 s and the Improvement rate is reported as 33.2%.

As to `O=C1N(c2ccc(F)cc2)CCN1[C@@H]1CCCN(Cc2ccccc2)C1` [Example 1, (R)-1-(4-florophenyl)-3-[3-(1-phenylmethyl)piperidyl]-2-imidazolidinone], in series [4] (M1 versus M2 receptor), the “selectivity to M1 receptor (in words)” value is reported as “far higher selectivity to M1 receptor than to M2 receptor”. In addition, the “IC50 (M2)/IC50 (M1)” value in series [4] (ratio of IC50 values, selectivity to M1 receptor) is 16.7. The IC50 was determined as 500 nM in series [1] and 30 nM in series [2]. The “affinity to the central M1 muscarinic receptor (in words)” value in series [2] is on record as “patent affinity to the central M1 muscarinic receptor”. The “in vitro muscarine (M1) activity / affinity relative to S form (Referential example 9)” value in series [2] (compared with S isomer) is given as “about 120 times”. For the same molecule, the “in vitro muscarine (M1) activity / affinity relative to racemic form (Referential example 8)” value in series [2] (compared with racemic form) is listed as “about 3 times”. Moreover, the “common symptoms and death” value is recorded as “None” in the series on Std:ddY strain male mice (300 mg/kg); “None” with Std:ddY strain male mice (600 mg/kg); “None” with Std:ddY strain male mice (1200 mg/kg); “problems did not arise at any rate” in the series with Std:ddY strain male mice (1200 mg/kg, listed as R form); “such symptom was not caused even at 1200 mg/kg” with Std:ddY strain male mice (1200 mg/kg, listed as compound of the invention). Moreover, the “Reaction latency Mean ± S.E.” value is 91.5 ± 21.4 s in series [3] (3 mg/kg), 133.0 ± 29.3 s in series [3] (10 mg/kg) and 166.9 ± 40.2 s in series [3] (30 mg/kg). Further, the results for the Improvement rate in series [3] (3 mg/kg), in series [3] (10 mg/kg) and in series [3] (30 mg/kg) were 34.3%, 77.9% and 113.6%, respectively. The “improvement effect on the amnesia / disturbance of learning (in words)” value is “could be recognized only for R form with significant difference” in series [3] (listed as R form) and “very excellent improvement effect on the amnesia” in series [3] (listed as R isomer).

The molecule `O=C1N(c2ccc(F)cc2)CCN1[C@H]1CCCN(Cc2ccccc2)C1` [Referential example 9, (S)-1-(4-fluorophenyl)-3-[3-(1-phenylmethyl)piperidyl]-2-imidazolidinone] showed an IC50 in series [1] above 10000 nM. In series [2], this molecule gave an IC50 of 3700 nM. For the same molecule, in the series with Std:ddY strain male mice, the “common symptoms (in words)” value is on record as “convulsive actions were seen”, the “dose at which convulsion was observed” value is on record as at least 300 mg/kg and the “dose at which death was observed” value is at least 300 mg/kg. In the series on Std:ddY strain male mice (300 mg/kg), the “Convulsion (animals affected)” value is given as 2/4 and the “Death (animals)” value was 1/4. Besides, in the series with Std:ddY strain male mice (600 mg/kg), the “Death (animals)” value was 4/4. Also, in series [3] (3 mg/kg), the “Reaction latency Mean ± S.E.” value was 63.3 ± 32.1 s and the Improvement rate is -23.5%. In addition, in series [3] (10 mg/kg), the “Reaction latency Mean ± S.E.” value worked out at 61.5 ± 26.5 s and the Improvement rate is reported as -25.0%. In series [3] (30 mg/kg), the “Reaction latency Mean ± S.E.” value stood at 113.2 ± 36.2 s and the Improvement rate is listed as 18.1%.
